Earlier results, collected in patent publication US11065266B2, “Method of treating melanoma using an inhibitor of an atypical protein kinase C” (UNIVERSITY OF SOUTH FLORIDA, priority 2016, dated 2021).

Target: T1, PKC-ι (Homo sapiens, UniProt P41743)
T1 sequence (P41743 1-596): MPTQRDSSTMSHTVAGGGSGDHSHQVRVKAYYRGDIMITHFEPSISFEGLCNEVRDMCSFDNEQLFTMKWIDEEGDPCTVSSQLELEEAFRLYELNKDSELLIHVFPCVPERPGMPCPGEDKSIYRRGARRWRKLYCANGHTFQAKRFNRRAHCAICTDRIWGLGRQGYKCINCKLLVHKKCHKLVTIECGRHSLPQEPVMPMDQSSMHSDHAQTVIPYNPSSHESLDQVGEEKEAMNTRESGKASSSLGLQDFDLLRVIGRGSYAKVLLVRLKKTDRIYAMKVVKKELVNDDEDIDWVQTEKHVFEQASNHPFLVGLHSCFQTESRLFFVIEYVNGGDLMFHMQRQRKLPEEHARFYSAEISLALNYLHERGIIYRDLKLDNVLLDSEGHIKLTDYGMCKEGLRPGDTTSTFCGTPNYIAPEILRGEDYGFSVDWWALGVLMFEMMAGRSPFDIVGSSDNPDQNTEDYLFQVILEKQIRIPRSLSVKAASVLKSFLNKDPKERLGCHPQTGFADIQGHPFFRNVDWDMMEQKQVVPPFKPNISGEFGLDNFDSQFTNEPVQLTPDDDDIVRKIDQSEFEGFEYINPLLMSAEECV
Conditions: cited from earlier work

Row | SMILES | binding to PKC-ι
1 | O=C([O-])CC([S-])C(=O)[O-].[Au+].[Na+].[Na+] (centres unmarked) [Sodium aurothiomalate] | low micromolar range
2 | OC[C@H]1O[C@H]([S-])[C@H](O)[C@@H](O)[C@@H]1O.[Au+] [aurothioglucose] | low micromolar range
